Results on three molecules are retold here after patent US9902713B2, “Neuroprotective compounds and use thereof” (BOARD OF REGENTS OF THE UNIVERSITY OF TEXAS SYSTEM, priority 2013, dated 2018).

Where only a bound is given, the exact number is not on record here.

What is called Kp is the ratio of the level in a tissue or fluid to that in plasma or blood. The term bioavailability denotes dose-corrected exposure relative to a reference, in per cent. One may read the IC50 as the concentration that gives 50% inhibition.

The test system of series [1] is cultured cortical neurons. In words: MPP+ toxicity in cultured neurons (MTT). The class given is cell-based. As to conditions: 10 μM compound, 10 μM MPP+, 24 hrs. Here is the method: FIGS. 35A-35B show P7C3-S243 and P7C3-A20 protect cultured hippocampal and cortical neurons from MPP^+ toxicity. […] Experiments were performed 2 independent times with 8-12 replicates of each sample both times.

The nature of series [2]: Protein binding. The class given is in vitro ADME.
For series [3], the system named is cultured hippocampal neurons. Description: 6-OHDA toxicity in cultured neurons (MTT). The class given is cell-based. To be noted: 10 μM compound. Here is the method:
A rat model of Parkinson's disease, incuded by 6-hydroxydopamine (6-OHDA) was used to test various compounds As shown in FIGS. 33A-33D, P7C3-S243 protects cultured hippocampal and cortical neurons from 6-OHDA toxicity. […] (FIG. 33B) The average number of hippocampal neurons in the 10 μM P7C3-S243 treatment group was not different from the average number of hippocampal neurons treated with medium alone or with DMSO+Ascorbic acid (one-way ANOVA). […] The average number of cortical neurons in the 10 μM P7C3-S243 treatment group was not different from the average number of cortical neurons treated with medium alone or with DMSO+Ascorbic acid (one-way ANOVA). Experiments were performed two independent times, with 8-12 replicates of each sample both times.

Series [4] can be described thus: Pharmacokinetic analysis, plasma and brain levels.
Series [5] is described as follows: in vivo. To be noted: mouse; for Kp: brain and plasma.
Series [6] relates to newborn neurons. In words: Survival of BrdU-prelabeled newborn neurons (FIG. 4). The class given is in vivo, mice. To be noted: BrdU bolus, then twice-daily IP 7 days. As to the method: (§1) Adult mice were administered a bolus of BrdU (150 mg/kg) to label newborn neurons, and 24 hours later, twice-daily IP treatment was begun with vehicle or compound for 7 days. At the end of the 7 days, the number of surviving BrdU-labeled neurons was quantified. Importantly, under the conditions of this experiment, newborn neurons were labeled prior to exposure to drug, so any increase in number of neurons can be attributed to neuroprotective activity rather than proliferative effects. […] Data shown are mean+/−SEM. P values are shown for comparison to VEH treated group, and were obtained by one-way ANOVA with Dunnet's post-hoc test, using GraphPad Prism 5.0. Asterisks indicate p<0.01 (*) or p<0.0001 (***).
as §1, with “Specifically, in FIG. 4, adult” for “Adult”, “Asterisks indicate p<0.01 (*) or p<0.0001 (***).” left out

Series [7] deals with motor neurons in the spinal cord. To be noted: previously reported; cited from earlier work.
Series [8] deals with 47 neuronal receptors and channels. Description: NIH Psychoactive Drug Screening Program panel. It counts as binding.
Series [9] concerns the target CYP1A2 (Homo sapiens, UniProt P05177). In words: Cytochrome P450 inhibition.
Series [10] has as its system hippocampal CA1 neurons, myelin and mitochondria. In words: Toluidine blue staining and TEM of hippocampus after blast-injury. It counts as in vivo, mice. Here is the method: To further examine hippocampal structural pathology, we turned to ultrathin ([…]) section histology using toluidine blue staining, as well as transmission electron microscopy (TEM) (FIG. 31). […] In blast-injured animals, however, we observed accumulation of chromatolytic and pyknotic neurons in the CA1 stratum pyramidale, accompanied by decreased dendritic extensions in the stratum radiatum, indicating general ongoing pathologic processes associated with neurodegeneration and consistent with our electrophysiologic data in FIG. 17.
The stratum radiatum is where CA3 Schaeffer collateral axons synapse with dendrites of CA1 pyramidal cells. This was the circuit we investigated electrophysiologically (FIG. 17), and we next turned to TEM to further characterize blast-injury induced axonal degeneration. […] These axons contained intact and healthy-appearing mitochondria.
Toluidine blue staining and transmission electron microscopy (TEM). Mice were transcardially perfused with Karnovsky's fixative solution (2% formaldehyde, 2.5% glutaraldehyde, 0.2M sodium cacodylate buffer, 1 mM CaCl2, 2 mM MgCl2, and 42.8 mM NaCl, pH 7.4) two weeks after either sham- or blast-Injury and with or without specified compound treatment. Harvested brains were incubated in Karnovsky's overnight at 4° C. Whole brains were cut in the horizontal plane (100 μm) using a vibratome (Leica 1500). Sections that contained the hippocampus were selected, washed with 0.1M sodium cacodylate buffer and then post fixed with 1% osmium fixative for 1 hr. After washing in 0.1M sodium cacodylate buffer, sections were dehydrated in a series of ethanol (50%, 75%, 95% and 100% ethanol) followed by embedding in EPON resin overnight at 65° C. For toluidine blue staining, semithin sections (1 μm) were cut with an ultramicrotome (Leica UC6) and stained with toluidine blue. Pictures were taken using an upright microscope (Zeiss Axio Imager.M2) with a color camera (AxioCam ICc5). For TEM, ultrathin sections (60 nm) adjacent to the semithin sections were cut with an ultramicrotome, loaded onto a Formvar 200-mesh Ni grid, and counterstained with uranyl acetate and lead citrate. Specimens were examined using a JEOL JEM 1230 electron microscope with a Gatan UltraScan 1000 2 k×2 k CCD camera. See also FIG. 31.

For series [11], the system named is blast-injured mice. In words: Barnes maze, treatment begun 10 months after blast injury. It counts as in vivo. From the text:
After 8 weeks of treatment, mice were completely withdrawn from treatment with vehicle or compound.

The mark [12] stands for this setting: blast-injured, oral 0.3 mg/kg/day.

Chain of CYP1A2 (P05177 whole entry): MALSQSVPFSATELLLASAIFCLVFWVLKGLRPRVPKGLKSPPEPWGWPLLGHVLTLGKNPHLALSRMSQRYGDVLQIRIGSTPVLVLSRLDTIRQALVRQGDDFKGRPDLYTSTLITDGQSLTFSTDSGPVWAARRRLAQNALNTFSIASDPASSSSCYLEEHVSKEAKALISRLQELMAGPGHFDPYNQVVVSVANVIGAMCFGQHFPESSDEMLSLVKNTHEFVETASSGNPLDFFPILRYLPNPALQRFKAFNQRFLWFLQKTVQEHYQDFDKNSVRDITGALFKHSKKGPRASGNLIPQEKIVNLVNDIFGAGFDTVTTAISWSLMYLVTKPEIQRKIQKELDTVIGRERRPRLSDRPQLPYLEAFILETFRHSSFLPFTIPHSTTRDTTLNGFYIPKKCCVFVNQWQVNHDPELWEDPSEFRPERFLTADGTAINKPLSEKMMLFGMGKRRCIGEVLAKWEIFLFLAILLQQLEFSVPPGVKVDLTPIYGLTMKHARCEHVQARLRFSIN

On to `COc1cccc(NCC(F)Cn2c3ccc(Br)cc3c3cc(Br)ccc32)n1` (racemic) [P7C3-S243, N-(3-(3,6-dibromo-9H-carbazol-9-yl)-2-fluoropropyl)-6-methoxypyridin-2-amine], for which the “protection (MTT)” value is reported as “significant protection” in [1] and “significant protection” in series [3] (50 μM 6-OHDA, 24 hrs). In series [2], the protein binding entry was “high”. Also, the “average number of neurons vs medium or DMSO+Ascorbic acid” value in series [3] was “not different”. The “% F (brain)” value in series [4] (IP 10 mg/kg) was found to be 28%; in [4] (IP 20 mg/kg) it was 48%. In addition, the “% F (plasma)” value in series [4] (IP 10 mg/kg) is 66%. The “AUC(brain)” value was found to be 189 ± 35 µg·min/g in [4] (IP 10 mg/kg), 319 ± 68 µg·min/g in [4] (IP 20 mg/kg), 671 ± 14 µg·min/g in [4] (IV 10 mg/kg) and 388 ± 29 µg·min/g in series [4] (PO 20 mg/kg). The T1/2 in [4] (IP 10 mg/kg) is on record as greater than 24 h; in series [4] (IP 20 mg/kg), 15 h; in [4] (IV 10 mg/kg), 7.4 h; in series [4] (PO 20 mg/kg), 9.6 h. Also, in series [4] (all routes of administration), the “metabolic stability in vivo” value is on record as “metabolically stable”. Also, the brain levels entry in [4] (following IP dosing) is listed as “dose-proportional increase”. Besides, the Kp in series [5] (ip, 10 mg/kg) is 0.45; in series [5] (ip, 20 mg/kg) it was 0.28; in series [5] (iv, 10 mg/kg) it was 1.1; in series [5] (po, 20 mg/kg), 0.81. The bioavailability turned out to be 58% in series [5] (brain, po, 20 mg/kg); 90% in series [5] (plasma, ip, 20 mg/kg); 38% in [5] (plasma, po, 20 mg/kg). Besides, in series [6], the “protection down to (dose)” value is reported as 1 mg/kg/day.

Consider `COc1cccc(NCC(F)Cn2c3ccc(Br)cc3c3cc(Br)ccc32)c1` (centres unmarked) [P7C3-A20, N-(3-(3,6-dibromo-9H-carbazol-9-yl)-2-fluoropropyl)-3-methoxyaniline], for which the “motor neuron cell death in the spinal cord” value in [7] is reported as “minimize motor neuron cell death”.

Take `COc1cccc(NCC(F)Cn2c3ccc(Br)cc3c3cc(Br)ccc32)n1` (single isomer, unassigned; (-)) [(−)-P7C3-S243, (−)-N-(3-(3,6-dibromo-9H-carbazol-9-yl)-2-fluoropropyl)-6-methoxypyridin-2-amine]: the “binding partners among 47 neuronal receptors and channels” value in series [8] is given as “no compelling binding partners were identified”. Moreover, in [9], the IC50 was 20 µM. For the same molecule, the “CA1 histology (toluidine blue)” value in [10] (setting [12]) is on record as “these same pathologic features were present”; in series [10] (blast-injured, oral 3 mg/kg/day), “partially preserve dendritic extension”; in [10] (blast-injured, oral 30 mg/kg/d) it was “fully preserved all structural aspects”; in [10] (sham-injured, oral 30 mg/kg/d), “did not change”. Also, the “axons and neuronal mitochondria (TEM)” value in series [10] (setting [12]) is given as “degenerating axons with characteristic unraveling of the myelin sheath”; in series [10] (blast-injured, oral 3 mg/kg/d) it was “partial resolution of pathological signs”; in series [10] (blast-injured, oral 30 mg/kg/d), “full protection”; in [10] (sham-injury, oral 30 mg/kg/d), “normally myelinated axons”. Also, in series [11] (3 mg/kg/day begun 10 months after injury, after 4 and 8 weeks), the “time spent in the escape area” value is listed as “sustained improvement in cognitive function”. Further, the “cognition relative to vehicle group after withdrawal” value in series [11] (after 8 weeks of treatment, then withdrawn) was “sustained improvement in cognition”.
